# Laboratory results reported in ChEMBL document CHEMBL1128796, “2-Substituted 2-aminoethanol: Minimum essential structure for immunosuppressive activity of ISP-I (Myriocin)” (Bioorg Med Chem Lett, 1995).
# Counter-ions that a name gives are not always drawn.
# Organism: Mus musculus
# Assay: Effect on mouse allogenic mixed lymphocyte reaction (MLR)
# Assay type: functional
row,Compound,IC50 [nM]
1,CCCCCCCCCCCCCCCCCCC(CO)CO,> 10000
2,CCCCCCCCCCCCCCCCCCC(N)(CO)CO,12
3,CCCCCCCCCCCCCCCCCCC(N)CO (configuration not stated),140
4,CCCCCCCCc1ccc(CCC(N)CO)cc1 (configuration not stated),11
5,CCCCCCCCc1ccc(CCC(N)(CO)CO)cc1 [FINGOLIMOD HYDROCHLORIDE],6.1
6,CCCCCCC(=O)CCCCCC/C=C/C[C@@H](O)[C@H](O)[C@@](N)(CO)C(=O)O [MYRIOCIN],8
7,CCCCCCCCCCCCCCCCCCN [OCTADECYLAMINE],> 10000
